A short description of this data set: photoluminescence quantum yield (fraction); solvent given as SMILES.

Data on 31 compounds can be found in the Deep4Chem optical property database.

With `CC1=CC(C)=[N+]2C1=C(c1c3ccccc3c(C)c3ccccc13)c1c(C)cc(C)n1[B-]2(F)F`, the photoluminescence quantum yield (in CC#N) is 0.002; the photoluminescence quantum yield (in CCCCCC) worked out at 0.91; the photoluminescence quantum yield (in CCO) was determined as 0.005; the photoluminescence quantum yield (in CN(C)C=O) was 0.003; the photoluminescence quantum yield (in Cc1ccccc1) was 0.95; the photoluminescence quantum yield (in ClCCl) amounted to 0.011.
On to `CCc1c(C)c2n(c1C)[B-](F)(F)[N+]1=C(NCc3ccc(OC)cc3)C(SC#N)=CC1=C2C`, for which the photoluminescence quantum yield stood at 0.83 (in CC#N); 0.91 (in CCCCCC); 0.9 (in CCOC(C)=O); 0.85 (in CO); 0.93 (in ClCCl).
Under “in ClCCl”, `CC(C)(C)NC(=O)c1ccc(-c2ccc(N3c4ccccc4Oc4ccccc43)cc2)c2ccc3c4ccc(F)cc4c4cc(F)ccc4c3c12` came in with a photoluminescence quantum yield of 0.03.
The compound `C(=C\c1cccc2ccccc12)/c1ncc(-c2ccccc2)o1` returned a photoluminescence quantum yield (in ClCCl) of 0.32.
The same measure, in the same setting: next, `COc1ccc(C#Cc2nc(C#Cc3ccc(OC)cc3)c(C#Cc3ccc(OC)cc3)c(C#Cc3ccc(OC)cc3)c2C#Cc2ccc(OC)cc2)cc1`: 0.81; `CCCCCCCCOc1ccc(C#Cc2ccc3oc4ccccc4c3c2)c(OCCCCCCCC)c1`: 0.45.
`CCCCCCCCCCCCCCCCOc1cc(C#Cc2ccc3ccccc3c2-c2c(C#Cc3cc(OCCCCCCCCCCCCCCCC)c(C#Cc4ccc(C=C(C#N)C#N)cc4)cc3OCCCCCCCCCCCCCCCC)ccc3ccccc23)c(OCCCCCCCCCCCCCCCC)cc1C#Cc1ccc(C=C(C#N)C#N)cc1`: the photoluminescence quantum yield was 0.63 (in Brc1ccccc1); 0.99 (in C1CCCCC1); 0.3 (in C1CCOC1); 0.94 (in C1COCCO1); 0.98 (in CCCCCC); 0.52 (in CCCCCCCCO). For the same compound, the photoluminescence quantum yield was 0.97 (in CCCCOCCCC); 0.37 (in CCOC(C)=O); 0.87 (in CCOCC); 0.95 (in Cc1ccccc1); 0.95 (in ClC(Cl)(Cl)Cl); 0.81 (in ClC(Cl)Cl). The photoluminescence quantum yield (in ClCCl) was 0.23.
For the compound `CCCCCCCCc1ccc(-n2c3c(c4c2c2c(n4-c4ccc(CCCCCCCC)cc4)-c4ccccc4NB2c2ccccc2)B(c2ccccc2)Nc2ccccc2-3)cc1`, the photoluminescence quantum yield (in Cc1ccccc1) amounted to 0.7.
With `COc1ccc(-c2ccc(-c3cc(-c4ccccn4)nc(-c4ccccn4)c3)cc2)cc1`, where the note is “in ClCCl”, the photoluminescence quantum yield was 0.5.
`C(C#Cc1ccc2ccc3cccc4ccc1c2c34)#Cc1cccc2ccccc12`: the photoluminescence quantum yield turned out to be 0.84 (in C1CCCCC1), 0.73 (in CC#N), 0.55 (in CO) and 0.64 (in ClCCl).
Consider `Cc1cc(=O)oc2cc3c4ccc(C(C)(C)C)cc4c4cc(C(C)(C)C)ccc4c3cc12`, for which, under “in ClC(Cl)Cl”, the photoluminescence quantum yield is 0.14.
In the case of `CCCCCCc1ccc(-n2c3[n+](c4c5ccccc5c5ccccc5c42)[B-](C)(C)c2ccccc2-3)cc1`, the photoluminescence quantum yield by setting is: (in C1CCOC1) 0.45; (in CC#N) 0.28; (in Cc1ccccc1) 0.46; (in ClCCl) 0.38.
For `CCC1=C(C)C2=C(C)c3cc(I)c(I)n3[B-](F)(F)[N+]2=C1C`, the photoluminescence quantum yield (in C1CCCCC1) came to 0.2; the photoluminescence quantum yield (in CC(C)=O) came out at 0.13; the photoluminescence quantum yield (in CCO) is 0.16; the photoluminescence quantum yield (in CCOC(C)=O) came out at 0.15; the photoluminescence quantum yield (in CO) was 0.13; the photoluminescence quantum yield (in OCC(F)(F)F) came out at 0.11.
Where the note is “in ClC(Cl)Cl”, `CC(C)(C)c1ccc(Oc2cc3c4c(cc(Oc5ccc(C(C)(C)C)cc5)c5c6c(Oc7ccc(C(C)(C)C)cc7)cc7c8c(cc(Oc9ccc(C(C)(C)C)cc9)c(c2c45)c86)C(=O)N(Cc2ccccc2)C7=O)C(=O)N(Cc2ccccc2)C3=O)cc1` displayed a photoluminescence quantum yield of 0.73.
The same measure, in the same setting: next, `CC1=C2CCc3ccccc3C2=[N+]2C1=C(c1ccc(I)cc1)c1c(C)c3c(n1[B-]2(F)F)-c1ccccc1CC3`: 0.72.
The compound `Cc1ccc(-c2ccc(/C=C/c3ccc(Cl)cc3)cn2)nc1` came in with a photoluminescence quantum yield (in CC#N) of 0.76.
Compound `CC(C)(C)c1ccc2c(c1)c1cc(C(C)(C)C)ccc1n2-c1ccc(N(c2ccc(-c3ccc(-c4ccc(-c5ccc(-c6ccc(N(c7ccc(-n8c9ccc(C(C)(C)C)cc9c9cc(C(C)(C)C)ccc98)cc7)c7ccc(-n8c9ccc(C(C)(C)C)cc9c9cc(C(C)(C)C)ccc98)cc7)cc6)cc5)c5nsnc45)cc3)cc2)c2ccc(-n3c4ccc(C(C)(C)C)cc4c4cc(C(C)(C)C)ccc43)cc2)cc1` showed a photoluminescence quantum yield (in ClCCl) of 0.03.
Same read-out and setting: next, `CCCCCCOc1cc(C=O)c(OCCCCCC)cc1C=O`: 0.208.
As for `Cc1c(C)n2c(COC(=O)CNC(=O)OC(C)(C)C)c(C)c(=O)n2c1=O`, where the note is “in CCO”, the photoluminescence quantum yield was 0.63.
`Oc1ccccc1-c1nc2ccccc2s1` came in with a photoluminescence quantum yield (in CCO) of 0.0155, a photoluminescence quantum yield (in ClCCl) of 0.0368 and a photoluminescence quantum yield (in O) of 0.101.
For `CC(C)(C)c1ccc(-c2cc(-c3ccc(-c4cc(-c5ccc(C(C)(C)C)cc5)c(C(=O)NCc5cccs5)s4)s3)sc2C(=O)NCc2cccs2)cc1`, the photoluminescence quantum yield (in ClCCl) came out at 0.33.
`CC1=CC(C)=[N+]2C1=C(c1ccc(I)cc1)c1c(C)cc(C)n1[B-]2(F)F` registered a photoluminescence quantum yield (in ClC(Cl)Cl) of 0.57.
For the setting “in Cc1ccccc1”, `COc1ccccc1-c1nc2c3ccccc3c3ccccc3c2o1` registered a photoluminescence quantum yield of 0.53.
For `CCC12C(=C3C(=C4c5ccccc5S(=O)(=O)C41CC)C(F)(F)C(F)(F)C3(F)F)c1ccccc1S2(=O)=O` (stereo not given), the photoluminescence quantum yield (in C1COCCO1) was determined as 0.22.
In the case of `CCCCCOc1cc2oc(=O)c3c4occc4c4ccc5cccc6c(c1)c2c3c4c56`, the photoluminescence quantum yield (in C1CCOC1) was found to be 0.45.
`CCN(CC)c1ccc2cc(C#N)/c(=N\C(=O)c3ccccc3)oc2c1`: the photoluminescence quantum yield was determined as 0.033 (in CCO) and 0.87 (in ClCCl).
For `N#Cc1c(-n2c3ccccc3c3ccccc32)c(-n2c3ccccc3c3ccccc32)cc(-n2c3ccccc3c3ccccc32)c1-n1c2ccccc2c2ccccc21`, the photoluminescence quantum yield (in Cc1ccccc1) came out at 0.49.
For `Cc1ccc2nnn(-c3c(C#N)c4c(N)ncnc4n3[C@H]3C[C@H](O)[C@@H](CO)O3)c2c1`, where the note is “in CO”, the photoluminescence quantum yield stood at 0.007.
On to `COc1ccc(C2=C(C)C3=C(c4c(-c5ccccn5)nc5ccccn45)c4c(C)c(-c5ccc(OC)cc5)c(C)n4[B-](F)(F)[N+]3=C2C)cc1`, for which, under “in ClCCl”, the photoluminescence quantum yield stood at 0.416.
Take `F[B-]1(F)n2cccc2C(c2c3ccccc3c(-c3ccccc3)c3ccccc23)=C2C=CC=[N+]21`: the photoluminescence quantum yield by setting is: (in CC#N) 0.001; (in CCO) 0.002; (in CN(C)C=O) 0.001; (in Cc1ccccc1) 0.007; (in ClCCl) 0.002.
In the case of `N#Cc1ccc(-c2cn3cc(-c4ccccc4)c[n+]3[n-]2)cc1`, the photoluminescence quantum yield (in ClCCl) was 0.48.
